Measurements reported in patent publication US20090246293A1 (priority 2008, published 2009).
Like-named read-outs stand apart in the source and are kept apart here.

Columns and labels:
[1] = tested on: Phytophthora infestans (PHYTIN); format: in vivo; conditions: for % disease at 500 ppm of substance alone PHYTIN: substance alone 500 ppm, untreated check 95
[2] = tested on: Plasmopara viticola (PLASVI); format: in vivo; conditions: for Reduction in percent disease: aldehyde derivative 100 ppm with mancozeb, PLASVI; for % disease at 500 ppm of substance alone PLASVI: substance alone 500 ppm, untreated check 95
[3] = tested on: Pseudoperonospora cubensis (PSPECU); experiment: Droplet application on cucumber leaf, growth chamber (Examples 5a-d); format: in vivo; conditions: for % disease at 1000 ppm of substance alone: substance alone 1000 ppm; for % disease at 500 ppm of substance alone: substance alone 500 ppm, untreated check 91%; for % disease at 100 ppm of substance alone: substance alone 100 ppm
Procedure: Examples 5a through 5d were conducted in growth chambers on cucumber plants. Cucumbers (Cucumis sativus cv Bush Pickle Hybrid #901261) were grown from seed in 5 cm by 5 cm pots containing MetroMix™ growth medium (Scotts, Marysville, Ohio) and maintained in a glasshouse with supplementary light sources to provide a 14 hour photoperiod at 24-29° C. until the plants were in the 2-3 true leaf stage of growth and the oldest leaf was fully expanded.
For examples 5a through 5d, described below, samples of mancozeb formulated as Dithane DG NT were dissolved in water to form a ½×dilution series. Mancozeb rates were 400, 200, 100 and 50 ppm. Samples of various aldehydes, amino acids, carboxylic acids, amines and alcohols were dissolved in acetone and then mixed with aqueous solutions of mancozeb. Attractant rates in the dilute solutions were 100, 200, 500 or 1000 ppm, depending on the experiment.
Mixtures of attractant or attractant derivative plus mancozeb or mancozeb alone were applied to cucumber as a row of 5 or 7.5 ul droplets using a multi-channel pipetting device. Five droplets spaced 1 cm apart were placed along the mid-rib of the expanded cucumber leaf with the first droplet being positioned at least 1-cm from the leaf apex. Each treatment was replicated three or four times, depending on the experiment. Two to three hours after applying the treatments when droplets had dried, plants were inoculated with a suspension of sporangia of a Pseudoperonospora cubensis (PSPECU) and incubated as described in the methods for sprayed tests. When symptoms were well developed in untreated check plants, the experiment was assessed visually using a template 2 cm wide and 7 cm long with the long axis centered on the mid-rib of the treated leaf.
Reduction in percent disease was calculated by subtracting percent disease on plants receiving a mixture of mancozeb plus the specified test substance from percent disease on plants receiving mancozeb alone. The results for examples 5a-5d are shown below in Tables 7-10; the reduction in percent disease was indicated as follows: […]

[4] = tested on: Pseudoperonospora cubensis (PSPECU); conditions: in vivo
[5] = aldehyde derivative 100 ppm with mancozeb, Table 17
[6] = fungicide with Formulation I at 100 ppm, Table 19
[7] = substance 200 ppm with mancozeb 50 ppm vs mancozeb alone, cucumber
[8] = substance 1000 ppm with mancozeb 50 ppm vs mancozeb alone, cucumber
[9] = substance 500 ppm with mancozeb 200 ppm vs mancozeb alone, Table 8
[10] = substance 500 ppm with mancozeb 6.25 ppm (Dithane DGNT), foliar spray, inoculated 2 to 3 hours after treatment
[11] = substance 500 ppm with mancozeb 25 ppm (Dithane DGNT), foliar spray, inoculated 2 to 3 hours after treatment
[12] = substance 100 ppm with mancozeb 200 ppm vs mancozeb alone, Table 9
[13] = substance 100 ppm with mancozeb 200 ppm vs mancozeb alone, Table 10

CC(C)C/C=N/N(Cc1ccccc1)Cc1ccccc1 [Compound W]
Reduction in percent disease PHYTIN [1, 5]: xx (21-35% reduction in percent disease)

CON=C(C(=O)OC)c1ccccc1CON=C(C)c1cccc(C(F)(F)F)c1 [Trifloxystrobin, reference compound]
Reduction in percent disease PLASVI [2, 6]: x (0-20% reduction in percent disease) | Reduction in percent disease PHYTIN [1, 6]: x (0-20% reduction in percent disease)

CC(C)CCO [Isoamyl alcohol]
Reduction in % Disease [3, 7]: xx (21-35% reduction in percent disease) | Reduction in % Disease [3, 8]: x (0-20% reduction in percent disease) | % disease at 1000 ppm of substance alone ([3]; untreated check 100%): 100%

CC(C)CC=NNC(=O)c1cccc(C(=O)N/N=C/CC(C)C)c1 [Compound C]
Reduction in percent disease [4]: xxx (key: x: 0-20% reduction in percent disease; xx: 21-35% reduction in percent disease; xxx: 36-50% reduction in percent disease; xxxx: >50% reduction in percent disease) | Reduction in percent disease ([2]; Table 13): xx (21-35% reduction in percent disease) | Reduction in percent disease ([2]; Table 15): xx (21-35% reduction in percent disease)

CC(C)CO [Isobutanol]
Reduction in % Disease [3, 7]: x (0-20% reduction in percent disease) | Reduction in % Disease [3, 9]: x (0-20% reduction in percent disease) | Reduction in % Disease [3, 8]: xxxx (>50% reduction in percent disease) | % disease at 500 ppm of substance alone [3]: 95% | % disease at 1000 ppm of substance alone ([3]; untreated check 100%): 100% | Reduction in percent disease PLASVI [2, 10]: xxxx (>50% reduction in percent disease) | % disease at 500 ppm of substance alone PLASVI [2]: 78% | Reduction in percent disease PHYTIN [1, 11]: xxx (36-50% reduction in percent disease) | % disease at 500 ppm of substance alone PHYTIN [1]: 95%

CC(C)CC=NOCc1ccccc1 [Compound Y]
Reduction in percent disease PHYTIN [1, 5]: x (0-20% reduction in percent disease)

CC(C)C/C=N/NC(=O)CCCC(=O)N/N=C/CC(C)C [Compound E]
Reduction in percent disease [4]: xxx (key: x: 0-20% reduction in percent disease; xx: 21-35% reduction in percent disease; xxx: 36-50% reduction in percent disease; xxxx: >50% reduction in percent disease) | Reduction in percent disease ([2]; Table 13): xx (21-35% reduction in percent disease)

CCC(C)C=O (stereo not drawn) [2-methylbutyraldehyde]
Reduction in % Disease [3, 12]: x (0-20% reduction in percent disease) | Reduction in % Disease [3, 9]: x (0-20% reduction in percent disease) | % disease at 100 ppm of substance alone ([3]; untreated check 92%, Table 9): 98% | % disease at 500 ppm of substance alone [3]: 74% | Reduction in percent disease PLASVI [2, 10]: x (0-20% reduction in percent disease) | % disease at 500 ppm of substance alone PLASVI [2]: 95% | Reduction in percent disease PHYTIN [1, 11]: x (0-20% reduction in percent disease) | % disease at 500 ppm of substance alone PHYTIN [1]: 95%

CC(C)C/C=N/NC(=O)N/N=C/CC(C)C [Compound F]
Reduction in percent disease [4]: xx (key: x: 0-20% reduction in percent disease; xx: 21-35% reduction in percent disease; xxx: 36-50% reduction in percent disease; xxxx: >50% reduction in percent disease) | Reduction in percent disease ([2]; Table 13): x (0-20% reduction in percent disease)

CC(C)C/C=N/NC(=O)c1ccc(O)cc1 [Compound V]
Reduction in percent disease PHYTIN [1, 5]: xx (21-35% reduction in percent disease)

CC(C)C/C=N/N1CCCCC1 [Compound Z]
Reduction in percent disease PHYTIN [1, 5]: xx (21-35% reduction in percent disease)

CC(C)C/C=N/NC(=O)c1ccccc1 [Compound I]
Reduction in percent disease [4]: xx (key: x: 0-20% reduction in percent disease; xx: 21-35% reduction in percent disease; xxx: 36-50% reduction in percent disease; xxxx: >50% reduction in percent disease)

CCC(C=O)CC [2-ethylbutyraldehyde]
Reduction in % Disease [3, 12]: x (0-20% reduction in percent disease) | % disease at 100 ppm of substance alone ([3]; untreated check 92%, Table 9): 65%

O=[N+]([O-])c1cc(C(F)(F)F)c(Cl)c([N+](=O)[O-])c1Nc1ncc(C(F)(F)F)cc1Cl [Fluazinam, reference compound]
Reduction in percent disease PLASVI [2, 6]: xxx (36-50% reduction in percent disease) | Reduction in percent disease PHYTIN [1, 6]: xxx (36-50% reduction in percent disease)

CC(C)=CC=O [3-methyl-2-butenaldehyde]
Reduction in % Disease [3, 12]: x (0-20% reduction in percent disease) | Reduction in % Disease [3, 9]: x (0-20% reduction in percent disease) | % disease at 100 ppm of substance alone ([3]; untreated check 92%, Table 9): 100% | % disease at 500 ppm of substance alone [3]: 81% | Reduction in percent disease PLASVI [2, 10]: xxx (36-50% reduction in percent disease) | % disease at 500 ppm of substance alone PLASVI [2]: 95% | Reduction in percent disease PHYTIN [1, 11]: x (0-20% reduction in percent disease) | % disease at 500 ppm of substance alone PHYTIN [1]: 95%

CC(C)C=O [Isobutyraldehyde]
Reduction in % Disease [3, 12]: x (0-20% reduction in percent disease) | % disease at 100 ppm of substance alone ([3]; untreated check 92%, Table 9): 97%

CC(C)CCC(=O)O [Isocaproic acid]
Reduction in % Disease [3, 7]: xxx (36-50% reduction in percent disease) | Reduction in % Disease [3, 9]: x (0-20% reduction in percent disease) | Reduction in % Disease [3, 8]: xxx (36-50% reduction in percent disease) | % disease at 500 ppm of substance alone [3]: 88% | % disease at 1000 ppm of substance alone ([3]; untreated check 100%): 100% | Reduction in percent disease PLASVI [2, 10]: xxx (36-50% reduction in percent disease) | % disease at 500 ppm of substance alone PLASVI [2]: 93% | Reduction in percent disease PHYTIN [1, 11]: xxx (36-50% reduction in percent disease) | % disease at 500 ppm of substance alone PHYTIN [1]: 95%

N[C@@H](CCC(=O)O)C(=O)O [Glutamic acid]
Reduction in % Disease [3, 7]: xx (21-35% reduction in percent disease) | Reduction in % Disease [3, 9]: x (0-20% reduction in percent disease) | Reduction in % Disease [3, 8]: x (0-20% reduction in percent disease) | % disease at 500 ppm of substance alone [3]: 90% | % disease at 1000 ppm of substance alone ([3]; untreated check 100%): 100% | Reduction in percent disease PLASVI [2, 10]: xxx (36-50% reduction in percent disease) | % disease at 500 ppm of substance alone PLASVI [2]: 93% | Reduction in percent disease PHYTIN [1, 11]: xx (21-35% reduction in percent disease) | % disease at 500 ppm of substance alone PHYTIN [1]: 95%

CC(C)CC(=O)O [Isovaleric acid]
Reduction in % Disease [3, 7]: xx (21-35% reduction in percent disease) | Reduction in % Disease [3, 8]: xx (21-35% reduction in percent disease) | % disease at 1000 ppm of substance alone ([3]; untreated check 100%): 100%

C=CCON=CCC(C)C [Compound X]
Reduction in percent disease PHYTIN [1, 5]: xx (21-35% reduction in percent disease)

CCC(C)C(C)=O (stereo not drawn) [3-methyl-2-pentanone]
Reduction in % Disease [3, 13]: x (0-20% reduction in percent disease) | % disease at 100 ppm of substance alone ([3]; untreated check 100%, Table 10): 100%

CC(C)CCN [Isoamyl amine]
Reduction in % Disease [3, 7]: xxx (36-50% reduction in percent disease) | Reduction in % Disease [3, 8]: xxx (36-50% reduction in percent disease) | % disease at 1000 ppm of substance alone ([3]; untreated check 100%): 100%

CCCCC=O [Valeraldehyde]
Reduction in % Disease [3, 12]: x (0-20% reduction in percent disease) | Reduction in % Disease [3, 9]: x (0-20% reduction in percent disease) | % disease at 100 ppm of substance alone ([3]; untreated check 92%, Table 9): 93% | % disease at 500 ppm of substance alone [3]: 94% | Reduction in percent disease PLASVI [2, 10]: x (0-20% reduction in percent disease) | % disease at 500 ppm of substance alone PLASVI [2]: 95% | Reduction in percent disease PHYTIN [1, 11]: x (0-20% reduction in percent disease) | % disease at 500 ppm of substance alone PHYTIN [1]: 95%

CC(=O)CC(C)C [4-methyl-2-pentanone]
Reduction in % Disease [3, 13]: x (0-20% reduction in percent disease) | % disease at 100 ppm of substance alone ([3]; untreated check 100%, Table 10): 93%

CC(C)(C)CC=O [3,3-dimethylbutyraldehyde]
Reduction in % Disease [3, 12]: x (0-20% reduction in percent disease) | Reduction in % Disease [3, 9]: x (0-20% reduction in percent disease) | % disease at 100 ppm of substance alone ([3]; untreated check 92%, Table 9): 96% | % disease at 500 ppm of substance alone [3]: 75% | Reduction in percent disease PLASVI [2, 10]: x (0-20% reduction in percent disease) | % disease at 500 ppm of substance alone PLASVI [2]: 87% | Reduction in percent disease PHYTIN [1, 11]: x (0-20% reduction in percent disease) | % disease at 500 ppm of substance alone PHYTIN [1]: 95%

O=CCC1CC1 [Cyclopropylacetaldehyde]
Reduction in % Disease [3, 12]: x (0-20% reduction in percent disease) | Reduction in % Disease [3, 9]: x (0-20% reduction in percent disease) | % disease at 100 ppm of substance alone ([3]; untreated check 92%, Table 9): 85% | % disease at 500 ppm of substance alone [3]: 90% | Reduction in percent disease PLASVI [2, 10]: xx (21-35% reduction in percent disease) | % disease at 500 ppm of substance alone PLASVI [2]: 95% | Reduction in percent disease PHYTIN [1, 11]: x (0-20% reduction in percent disease) | % disease at 500 ppm of substance alone PHYTIN [1]: 95%

CC(C)C/C=N/N(C)c1ccccc1 [Compound AA]
Reduction in percent disease PHYTIN [1, 5]: x (0-20% reduction in percent disease)

N[C@@H](CC(=O)O)C(=O)O [Aspartic acid]
Reduction in % Disease [3, 7]: xx (21-35% reduction in percent disease) | Reduction in % Disease [3, 8]: xx (21-35% reduction in percent disease) | % disease at 1000 ppm of substance alone ([3]; untreated check 100%): 100%
